One data set relates to ALMY. Briefly: Herbicidal activity on grasses, post-emergence. The format is in vivo, Alopecurus myosuroides. The note with it: no safener, 4-leaf stage. As to the method: (§1) Various crop plants are grown in plastic pots with a diameter of 9 cm in a glasshouse to the stated stage and then treated with the particular herbicide or with a mixture of the herbicide and the safener by the post-emergence method. This entails the herbicide of the formula (A) and the compounds of the formula (B) being applied in the form of aqueous suspensions or emulsions with a water application rate which converts to 300 l/ha. 4 weeks after the treatment, the plants are assessed visually for every type of damage by the applied herbicides, taking particular account of the extent of persistent growth inhibition. The evaluation takes place in percentages (scale from 0 to 100%) compared with untreated controls.

A further data set relates to APSP. Briefly: Herbicidal activity on grasses, post-emergence. The settings on record: no safener, 4-leaf stage. The format is in vivo, Apera spica-venti. As to the method:
as §1

The test system of a further data set is AVFA. Briefly: Herbicidal activity on grasses, post-emergence. The format is in vivo, Avena fatua. The settings on record: no safener, 4-leaf stage. Here is the method:
as §1

The test system of another data set is POAN. Briefly: Herbicidal activity on grasses, post-emergence. The note with it: no safener, 4-leaf stage. The format is in vivo, Poa annua. As to the method:
as §1

A further data set has as its system Barley. Briefly: Phytotoxicity of herbicide/safener combinations in cereals, glasshouse post-emergence. The format is in vivo. The note with it: no safener, 4 weeks after treatment. As to the method:
as §1

The subject of a further data set is Wheat. The description is as above. The format is in vivo. The note with it: no safener, 4 weeks after treatment. As to the method: as §1
Another data set deals with Corn. Briefly: Effect and selectivity in corn: phytotoxicity. The format is in vivo. The settings on record: corn 4 leaves. Here is the method: as §1
The next data set has as its system SOHA. Briefly: Effect and selectivity in corn: herbicidal effect. The format is in vivo, Sorghum halepense. The note with it: 3 leaves. Here is the method: as §1
In the next data set the test system is ECCG. Briefly: Effect and selectivity in corn: herbicidal effect. The format is in vivo, Echinochloa crus-galli. The settings on record: start of tillering (4 to 5 leaves). Here is the method:
as §1

The subject of a further data set is SVFA. Briefly: Effect and selectivity in corn: herbicidal effect. The format is in vivo. Here is the method:
as §1

On to `COC(=O)NCc1ccc(C(=O)OC)c(S(=O)(=O)NC(=O)Nc2nc(OC)cc(OC)n2)c1.[Na]` [A6, N-(4,6-Dimethoxypyrimidin-2-ylaminocarbonyl)-2-methoxycarbonyl-5-(N-methoxycarbonylaminomethyl)benzenesulfonamide sodium salt], for which the entries for the “% effect on ALMY” value in the data set with ALMY (dose A 10 g AS/ha), in the data set with ALMY (dose A 20 g AS/ha) and in the data set on ALMY (dose A 40 g AS/ha) were 99%, 100% and 100%, respectively. The “% effect on APSP” value was found to be 99% in the data set with APSP (dose A 10 g AS/ha), 100% with APSP (dose A 20 g AS/ha) and 100% in the data set on APSP (dose A 40 g AS/ha). For the same molecule, the “% effect on AVFA” value with AVFA (dose A 10 g AS/ha) came out at 80%; in the data set with AVFA (dose A 20 g AS/ha) it was 90%; in the data set with AVFA (dose A 40 g AS/ha), 100%. The “% effect on POAN” value with POAN (dose A 10 g AS/ha) is given as 99%; in the data set with POAN (dose A 20 g AS/ha) it was 100%; with POAN (dose A 40 g AS/ha), 100%. Also, the “Phytotoxicity Barley” value with Barley (dose A 20 g AS/ha) came out at 30%; in the data set on Barley (dose A 40 g AS/ha), 85%. The “Phytotoxicity Wheat” value with Wheat (dose A 20 g AS/ha) was 15%; with Wheat (dose A 40 g AS/ha) it was 40%.

As to `CCC(=O)Nc1ccc(C(=O)N(C)C)c(S(=O)(=O)NC(=O)Nc2nc(OC)cc(OC)n2)c1.[Na]` [A9, N-(4,6-Dimethoxypyrimidin-2-ylaminocarbonyl)-2-(N,N-dimethylaminocarbonyl)-5-(N-propionylamino)benzenesulfonamide sodium salt], the results for the “Phytotoxicity or herbicidal effect in % Corn” value in the data set on Corn (dose 25 g AS/ha), in the data set on Corn (dose 50 g AS/ha) and with Corn (dose 100 g AS/ha) were 0%, 15% and 35%, respectively. In addition, the “Phytotoxicity or herbicidal effect in % SOHA” value came to 98% with SOHA (dose 25 g AS/ha) and 100% in the data set with SOHA (dose 50 g AS/ha). For the same molecule, the “Phytotoxicity or herbicidal effect in % ECCG” value came out at 99% in the data set with ECCG (dose 25 g AS/ha) and 100% in the data set on ECCG (dose 50 g AS/ha).

As to `COC(=O)c1ccc(CN(C)S(C)(=O)=O)cc1S(=O)(=O)NC(=O)Nc1nc(OC)cc(OC)n1` [A12], the results for the “% effect on ALMY” value in the data set on ALMY (dose A 6 g AS/ha), in the data set with ALMY (dose A 12 g AS/ha) and in the data set with ALMY (dose A 25 g AS/ha) were 95%, 98% and 99%, respectively. The “% effect on APSP” value with APSP (dose A 6 g AS/ha) is listed as 85%; with APSP (dose A 12 g AS/ha) it was 95%; in the data set on APSP (dose A 25 g AS/ha), 98%. Moreover, the “% effect on AVFA” value amounted to 75% with AVFA (dose A 6 g AS/ha), 85% in the data set on AVFA (dose A 12 g AS/ha) and 90% with AVFA (dose A 25 g AS/ha). For the same molecule, the “% effect on POAN” value with POAN (dose A 6 g AS/ha) is 85%; in the data set with POAN (dose A 12 g AS/ha), 92%; in the data set on POAN (dose A 25 g AS/ha), 99%. The “Phytotoxicity Barley” value with Barley (dose A 6 g AS/ha) was found to be 8%; in the data set with Barley (dose A 12 g AS/ha), 15%; with Barley (dose A 25 g AS/ha), 25%. Moreover, the “Phytotoxicity Wheat” value in the data set on Wheat (dose A 6 g AS/ha) stood at 5%; with Wheat (dose A 12 g AS/ha) it was 10%; with Wheat (dose A 25 g AS/ha), 10%.

Regarding `COc1cc(OC)nc(NC(=O)NS(=O)(=O)c2cc(NC=O)ccc2C(=O)N(C)C)n1` [A8, N-(4,6-Dimethoxypyrimidin-2-ylaminocarbonyl)-2-(N,N-dimethylaminocarbonyl)-5-(N-formylamino)benzenesulfonamide], the entries for the “Phytotoxicity or herbicidal effect in % SVFA” value with SVFA (dose 25 + 12 g AS/ha) and in the data set on SVFA (dose 50 + 25 g AS/ha) were 95% and 100%, respectively. The “Phytotoxicity or herbicidal effect in % SOHA” value in the data set with SOHA (dose 25 + 12 g AS/ha) was determined as 95%; in the data set with SOHA (dose 50 + 25 g AS/ha), 98%. Besides, the “Phytotoxicity or herbicidal effect in % ECCG” value with ECCG (dose 25 + 12 g AS/ha) is 98%; in the data set with ECCG (dose 50 + 25 g AS/ha) it was 100%.

Turning to `COC(=O)c1ccc(N(C)C(=O)C(C)C)cc1S(=O)(=O)NC(=O)Nc1nc(OC)cc(OC)n1.[Na]` [A5, N-(4,6-Dimethoxypyrimidin-2-ylaminocarbonyl)-2-methoxycarbonyl-5-(N-isopropionylmethylamino)benzenesulfonamide sodium salt], the “% effect on ALMY” value with ALMY (dose A 10 g AS/ha) was 95%; with ALMY (dose A 20 g AS/ha) it was 99%; with ALMY (dose A 40 g AS/ha), 100%. The “% effect on APSP” value in the data set on APSP (dose A 10 g AS/ha) was found to be 98%; in the data set on APSP (dose A 20 g AS/ha) it was 100%; with APSP (dose A 40 g AS/ha), 100%. The “% effect on AVFA” value amounted to 85% with AVFA (dose A 10 g AS/ha), 99% in the data set with AVFA (dose A 20 g AS/ha) and 100% in the data set with AVFA (dose A 40 g AS/ha). Also, the entries for the “% effect on POAN” value in the data set on POAN (dose A 10 g AS/ha), in the data set with POAN (dose A 20 g AS/ha) and in the data set with POAN (dose A 40 g AS/ha) were 98%, 100% and 100%, respectively. Further, the figures for the “Phytotoxicity Barley” value in the data set with Barley (dose A 20 g AS/ha) and with Barley (dose A 40 g AS/ha) were 25% and 50%, respectively. Also, the “Phytotoxicity Wheat” value is on record as 5% in the data set with Wheat (dose A 20 g AS/ha) and 20% in the data set on Wheat (dose A 40 g AS/ha).

For `COC(=O)c1ccc(NC(C)=O)cc1S(=O)(=O)NC(=O)Nc1nc(OC)cc(OC)n1.[Na]` [A3, N-(4,6-Dimethoxypyrimidin-2-ylaminocarbonyl)-2-methoxycarbonyl-5-acetylaminobenzenesulfonamide sodium salt], the “Phytotoxicity Barley” value in the data set on Barley (dose A 10 g AS/ha) came out at 60%; in the data set with Barley (dose A 20 g AS/ha) it was 95%. For the same molecule, the “Phytotoxicity Wheat” value in the data set on Wheat (dose A 10 g AS/ha) turned out to be 30%; in the data set on Wheat (dose A 20 g AS/ha) it was 65%.

In the case of `COC(=O)c1ccc(CN(C)C=O)cc1S(=O)(=O)NC(=O)Nc1nc(OC)cc(OC)n1.[Na]` [A2, N-(4,6-Dimethoxypyrimidin-2-ylaminocarbonyl)-2-methoxycarbonyl-5-(N-formyl-N-methylaminomethyl)benzenesulfonamide sodium salt], the results for the “Phytotoxicity Barley” value in the data set with Barley (dose A 10 g AS/ha) and in the data set with Barley (dose A 20 g AS/ha) were 40% and 80%, respectively. Further, the “Phytotoxicity Wheat” value in the data set with Wheat (dose A 10 g AS/ha) is given as 20%; in the data set on Wheat (dose A 20 g AS/ha), 60%.

Consider `COC(=O)c1ccc(CNS(C)(=O)=O)cc1S(=O)(=O)NC(=O)Nc1nc(OC)cc(OC)n1.[Na]` [A10], for which the “% effect on ALMY” value in the data set with ALMY (dose A 6 g AS/ha) worked out at 98%; with ALMY (dose A 12 g AS/ha), 100%; in the data set with ALMY (dose A 25 g AS/ha), 100%. Further, the “% effect on APSP” value in the data set with APSP (dose A 6 g AS/ha) is 80%; in the data set on APSP (dose A 12 g AS/ha), 97%; in the data set on APSP (dose A 25 g AS/ha), 99%. Also, the “% effect on AVFA” value in the data set with AVFA (dose A 6 g AS/ha) amounted to 75%; with AVFA (dose A 12 g AS/ha), 85%; with AVFA (dose A 25 g AS/ha) it was 90%. Further, the “% effect on POAN” value came to 85% in the data set with POAN (dose A 6 g AS/ha), 99% in the data set on POAN (dose A 12 g AS/ha) and 100% in the data set on POAN (dose A 25 g AS/ha). The “Phytotoxicity Barley” value with Barley (dose A 6 g AS/ha) is recorded as 5%; in the data set with Barley (dose A 12 g AS/ha) it was 15%; with Barley (dose A 25 g AS/ha), 55%. The results for the “Phytotoxicity Wheat” value in the data set with Wheat (dose A 6 g AS/ha), with Wheat (dose A 12 g AS/ha) and with Wheat (dose A 25 g AS/ha) were 15%, 25% and 30%, respectively.

For `CCC(=O)N(C)c1ccc(C(=O)OC)c(S(=O)(=O)NC(=O)Nc2nc(OC)cc(OC)n2)c1.[Na]` [A4, N-(4,6-Dimethoxypyrimidin-2-ylaminocarbonyl)-2-methoxycarbonyl-5-(N-methyl-N-propionylamino)benzenesulfonamide sodium salt], the “Phytotoxicity Barley” value in the data set on Barley (dose A 20 g AS/ha) is listed as 30%; in the data set with Barley (dose A 40 g AS/ha), 80%. For the same molecule, the “Phytotoxicity Wheat” value in the data set with Wheat (dose A 20 g AS/ha) turned out to be 15%; in the data set on Wheat (dose A 40 g AS/ha) it was 40%.

Take `COC(=O)c1ccc(NC(C)=O)cc1S(=O)(=O)NC(=O)Nc1nc(OC)cc(OC)n1` [A1, N-(4,6-Dimethoxypyrimidin-2-ylaminocarbonyl)-2-methoxycarbonyl-5-acetylaminobenzenesulfonamide]: the “Phytotoxicity Barley” value in the data set with Barley (dose A 10 g AS/ha) was determined as 50%; in the data set with Barley (dose A 20 g AS/ha) it was 80%. The entries for the “Phytotoxicity Wheat” value with Wheat (dose A 10 g AS/ha) and in the data set on Wheat (dose A 20 g AS/ha) were 25% and 50%, respectively.

For `COC(=O)NCc1ccc(C(=O)OC)c(S(=O)(=O)NC(=O)Nc2nc(OC)cc(OC)n2)c1.[Na]` [A11], the “% effect on ALMY” value in the data set with ALMY (dose A 6 g AS/ha) came to 95%; with ALMY (dose A 12 g AS/ha), 98%; with ALMY (dose A 25 g AS/ha), 100%. Moreover, the “% effect on APSP” value with APSP (dose A 6 g AS/ha) is recorded as 85%; in the data set with APSP (dose A 12 g AS/ha), 95%; with APSP (dose A 25 g AS/ha) it was 100%. The “% effect on AVFA” value in the data set on AVFA (dose A 6 g AS/ha) is given as 70%; in the data set with AVFA (dose A 12 g AS/ha) it was 90%; in the data set with AVFA (dose A 25 g AS/ha), 95%. Further, the “% effect on POAN” value in the data set with POAN (dose A 6 g AS/ha) is reported as 90%; in the data set with POAN (dose A 12 g AS/ha), 100%; in the data set with POAN (dose A 25 g AS/ha), 100%. The figures for the “Phytotoxicity Barley” value in the data set with Barley (dose A 6 g AS/ha), in the data set with Barley (dose A 12 g AS/ha) and with Barley (dose A 25 g AS/ha) were 10%, 25% and 45%, respectively. The entries for the “Phytotoxicity Wheat” value with Wheat (dose A 6 g AS/ha), in the data set with Wheat (dose A 12 g AS/ha) and in the data set on Wheat (dose A 25 g AS/ha) were 5%, 20% and 45%, respectively.

These data come from US8901036B2, “Combinations of phenylsulfonylurea herbicides and safeners” (Bayer Cropscience AG, priority 1994, dated 2014).
